Five compounds from patent US20230103965A1, “NOVEL ACTIVATORS OF THE LIPIDATING TRANSPORTER ATP BINDING CASSETTE PROTEIN TYPE 1 (AB-CA1) AND THERAPEUTIC USES THEREOF” (RAMOT AT TEL-AVIV UNIVERSITY LTD., priority 2020, published 2023) can be followed below.

In series [1] the target is T1, ECD1 of ABCA1 (Homo sapiens, UniProt O95477).
T1 construct: The proteins used in these experiments were Extra-Cellular Domain 1 (ECD1) of ABCA1 and Extra-Cellular Domain 2 (ECD2); purchased Biomatick
T1 sequence (O95477 43-639 limits assumed): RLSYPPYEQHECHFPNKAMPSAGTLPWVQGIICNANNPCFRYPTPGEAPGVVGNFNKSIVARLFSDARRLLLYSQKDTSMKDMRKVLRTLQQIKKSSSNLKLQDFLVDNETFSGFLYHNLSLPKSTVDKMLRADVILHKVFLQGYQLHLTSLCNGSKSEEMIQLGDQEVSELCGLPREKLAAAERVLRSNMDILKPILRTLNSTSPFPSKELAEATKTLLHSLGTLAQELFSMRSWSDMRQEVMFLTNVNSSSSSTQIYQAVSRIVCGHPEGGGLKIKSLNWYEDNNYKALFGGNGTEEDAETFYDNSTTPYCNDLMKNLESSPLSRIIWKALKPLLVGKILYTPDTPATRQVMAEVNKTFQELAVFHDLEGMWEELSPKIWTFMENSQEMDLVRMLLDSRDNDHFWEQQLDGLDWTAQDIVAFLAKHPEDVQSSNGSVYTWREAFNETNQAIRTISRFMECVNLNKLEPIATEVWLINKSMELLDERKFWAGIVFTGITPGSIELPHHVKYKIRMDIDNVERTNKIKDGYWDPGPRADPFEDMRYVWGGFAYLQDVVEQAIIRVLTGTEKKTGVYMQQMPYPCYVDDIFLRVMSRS
Put plainly: Microscale thermophoresis (MST) binding, label free protein. Conditions: unlabelled ECD1. The method, then: (§1) Microscale thermophoresis (MST) measurements. MST measurements of the binding of the HTS hits to the extracellular domain (ECD) of ABCA1 were performed by two complimentary methods utilizing either fluorescently labeled proteins or the endogenous fluorescence of unlabeled proteins. This was pursued as follows:
(§2) The experiments were performed with the purified extracellual domains 1 (ECD1) and 2 (ECD2) of ABCA1 [18]. Two complementary MST tests were performed, in which either the proteins were labeled with a fluorescence moiety or the endogenous fluorescence of the unlabeled proteins was monitored).
On the technique in general: Microscale thermophoresis detects binding through changes in fluorescence in a small temperature gradient.

Series [2] concerns apoE4 astrocytic cell line. As to the kind of experiment: Cellular viability / cytotoxicity of the hits. The series is classed as cell-based, Rodent. Conditions: 50 μM. The method, then:
FIG. 10: Effects of test compounds (HTS hits) on cellular viability. Experiments were performed on apoE4 astrocytic cell line in the presence of 50 μM of the indicated compounds. Viability was measured microscopically and by measurements of total cellular protein. (ii) Measurements of cytotoxicity of the hits.

The subject of a further series is Human Astrocytes. Put plainly: Cholesterol efflux (apoE4 lipidation) assay, BODIPY-cholesterol translocation to apoE4. The series is classed as cell-based. Conditions: for EC50: Astrocyte, Human astrocytes, efflux to apoE4. The method, then:
Cholesterol efflux assay in HTS. CCF-STTG1 cells were plated in 384-well plates containing 50 μL/well RPMI supplemented with 10% FBS at a density of 5×10^3 cells/well, using a Multidrop 384 Reagent Dispenser (Thermo Scientific), and incubated for 48 hr. Cells were washed twice with 50 μl PBS using an EL406 Microplate Washer Dispenser (BioTek, Winooski, Vt., USA) before being labeled with 50 μl of 10 μM BODIPY-cholesterol+100 μM cyclodextrin (CD) in RPMI 1640 medium containing 0.2% BSA. The labeling medium was added using in a Washer Dispenser II (GNF, San Diego, Calif., USA). Plates were transferred automatically to a Liconic incubator (Mauren Principality of Liechtenstein) and incubated for 24 h. Subsequently, cells were washed twice as described above to remove external cholesterol. Next, 50 μl of the efflux medium was added, which contained recombinant apoE4 at a concentration of 40 μg/ml in transparent RPMI 1640 (no phenol red), again using Washer Dispenser II (GNF, San Diego, Calif., USA). The positive control contained the ABCA1 activator, CS-6253 (120 μg/ml) in addition to the acceptor (apoE4). After 7 hr of efflux, the medium was transferred to new plates, using the Bravo Automated Liquid Handling system (Agilent, Santa Clara, Calif., USA). Fluorescence polarization (FP) and fluorescence intensity (FI) of the medium were measured in a PheraStar FS plate reader (BMG Labtech, Ortenberg, Germany).
The apoE4 lipidation Assay is based on measurements of the ability of astrocytes to translocate fluorescently labelled cholesterol to recombinant non lipidated apoE4 and on the extent to which this effect is enhanced by treatment with each of the screened compounds (FIG. 2, 3). This assay is an adaptation of previous studies of cholesterol translocation from labelled astrocytes to external acceptors such as apoE4 [16], except that in order to differentiate between gene expression related effects and direct biochemical effects of the hits on ABCA1, the incubations of the HTS with the cells was limited to 8 hours. The extent to which the cells secret the labelled cholesterol and transfer it to non-lipidated apoE4 was determined by regular fluorescence as well as by fluorescence polarization microscopy. The latter technique in this context is used due to its sensitivity to particle size which decreases the background signal by differentiating between free and particle bound released cholesterol.
The assay was characterized biochemically and it was shown that translocation of labelled cholesterol to apoE4 is time and concentration dependent (FIG. 4) and was increased by the positive control ABCA1 agonistic 26mer peptide CS-6253 [4] (FIG. 5). The assay was used for high throughput screening (HTS) and selection of positive hits. 50,000 compounds from commercially available libraries were screened utilizing the double criteria of a signal greater than 3 standard deviations from the mean of all of the screened compounds, and being similar or greater than the apoE4 lipidation driven by the ABCA1 agonistic peptide CS-6253. Additional criteria included the tier drug ability value with tier 1 being best and tier 3 being least suitable, as well as a hydrophobicity value of 2<log P<5 value. This yielded 14 hits, designated Compounds #1-#14 (FIG. 6).

In series [3] the target is T1, ECD1 of ABCA1. Put plainly: Microscale thermophoresis (MST) binding, labelled protein. As to the method:
as §1
The buffers of protein samples were exchanged on a desalting PD-10 column to MST labelling buffer (Nanotemper Technologies, NT.115). Each protein was labeled with Alexa Fluor 650 succinimidyl-ester (Thermo Fisher Scientific) in 3-fold excess and then incubated for 1 hr in the dark at room temperature. Excess dye was removed by PD-10 desalting columns. […] Protein-compound interactions were analyzed by microscale thermophoresis. […] Hits were prepared at the highest concentration soluble in MST buffer (Nanotemper)+10% DMSO. Next, hits were diluted by 2 in 16 consecutive tubes of 10 μl per tube. Then, 10 μl of the protein were added to each tube and centrifuged in 12,000 rpm for 10 minutes. Finally, the samples were loaded to the capillaries and were inserted to the MST machine. Experiments were performed on a microMonolith NT.115 Blue/Red (NanoTemper Technologies) in duplicates. Measurements were performed in standard glass capillaries (NanoTemper Technologies). […] All dissociation constants (KD) were calculated to a binding model assuming a 1:1 stoichiometry per binding partner.
as §2

One may read the EC50 as the concentration at which the effect is half-maximal. A higher EC50 goes with weaker potency. One may read the Kd as the equilibrium constant for the complex coming apart.

SMILES strings stand for the structures.

As for `CSC(SC)=C1CC/C(=C/c2ccc(N(C)C)cc2)C1=O` [Hit #14], the “Binding to ECD1 (Label free MST) Amplitude” value at ECD1 of ABCA1 [1] is recorded as 0 a.u. Besides, the “Viability Rodent Astrocytes” value in series [2] (Table 2) and in series [2] (Table 4) was “Normal” in each case. The EC50 in the series with Human Astrocytes (Table 2) and in the series on Human Astrocytes (Table 4) was > 44.8 µM each time. Besides, on ECD1 of ABCA1 [3], the “Binding to ECD1 (Labelled MST) Amplitude” value is 0 a.u.

For the compound `Cc1nn(CC(=O)c2ccc(Br)s2)c(C)c1[N+](=O)[O-]` [Hit #3], the “Binding to ECD1 (Label free MST) Amplitude” value at ECD1 of ABCA1 [1] worked out at 39.96 a.u. Further, the Kd on ECD1 of ABCA1 [1] was 178 µM; on ECD1 of ABCA1 [3], 278 µM. Besides, the “Viability Rodent Astrocytes” value in series [2] (Table 2) and in series [2] (Table 4) was “Normal” each time. The EC50 in the series with Human Astrocytes (Table 2) and in the series with Human Astrocytes (Table 4) was > 44.8 µM in each case. Moreover, the “Binding to ECD1 (Labelled MST) Amplitude” value at ECD1 of ABCA1 [3] worked out at 10.85 a.u.

Turning to `O=[N+]([O-])c1ccc(N2CCCCC2)c2nonc12` [Hit #7], the “Viability Rodent Astrocytes” value in series [2] (Table 2) and in series [2] (Table 4) was “Normal” throughout. For the same compound, the EC50 with Human Astrocytes (Table 2) and in the series on Human Astrocytes (Table 4) was 8.56 µM in each case. Moreover, in the series on Human Astrocytes (test compounds 50 μM), the “Stimulation of cholesterol efflux from human astrocytes to apoE4” value is on record as “activates cholesterol efflux”. Besides, the “Binding to ECD1 (Labelled MST) Amplitude” value at ECD1 of ABCA1 [3] came to 22.05 a.u.

As to `C[C@]12CC[C@@H](O)CC1CCC1C2CC[C@](C)(C(=O)O)C1/C=C1/Nc2ccccc2C1=O` (stereo partly drawn) [Hit #12], the “Binding to ECD1 (Label free MST) Amplitude” value at ECD1 of ABCA1 [1] was 90.25 a.u. Moreover, the values for the Kd on ECD1 of ABCA1 [1] and on ECD1 of ABCA1 [3] were 314 µM and 11 µM, respectively. In addition, the “Viability Rodent Astrocytes” value in series [2] (Table 2) and in series [2] (Table 4) was “Normal” each time. Moreover, the EC50 with Human Astrocytes (Table 2) and with Human Astrocytes (Table 4) was > 44.8 µM in each case. In addition, the “Binding to ECD1 (Labelled MST) Amplitude” value at ECD1 of ABCA1 [3] is 9.05 a.u.

Turning to `CC(C)(C)C(=O)COC(=O)c1ccccc1SCc1cc(-c2ccco2)on1` [Hit #4], the “Binding to ECD1 (Label free MST) Amplitude” value at ECD1 of ABCA1 [1] worked out at 16.45 a.u. The Kd at ECD1 of ABCA1 [1] was > 350 µM; on ECD1 of ABCA1 [3], 27 µM. In addition, the “Viability Rodent Astrocytes” value in series [2] (Table 2) and in series [2] (Table 4) was “Normal” in each case. Besides, the EC50 in the series on Human Astrocytes (Table 2) and with Human Astrocytes (Table 4) was 28.3 µM throughout. In addition, the “Binding to ECD1 (Labelled MST) Amplitude” value at ECD1 of ABCA1 [3] was determined as 13.63 a.u.
